# Key:
# [1] = Cytotoxicity assay (MTT) against MRC-5 cells; format: cell-based; details: human, MRC-5 cells (normal embryonic lung cell line), read-out: Cytotoxic activity (IC50)
# Procedure: MRC-5 cells were grown in DMEM supplemented with 100 U/mL penicillin–streptomycin and 10% FBS. Briefly, the cells suspended in the corresponding culture medium were inoculated in 96-well microtiter plates (Corning Inc., NY, USA) at 10,000–20,000 cells per well and then incubated at 37 °C under a humidified atmosphere with 5% CO2 for 24 h. An equal volume of additional medium containing serial dilutions of test compounds, positive control (doxorubicin), or negative control (DMSO) was added to the desired final concentrations. Microtiter plates were further incubated for 48 h. The cell viability in each well was determined by staining with the MTT assay reagent (Molecular Probes, Cat. no. M6494).[75]–[77] MTT solution ([…]) was added to all wells of the assay, and the plates were incubated for 2–4 h. Subsequently, DMSO was added to dissolve the resulting formazan by sonication. The plates were read on a microplate reader (Molecular Devices, USA) using a test wavelength of 550 nm and a reference wavelength of 650 nm. The IC50 value was determined as the concentration of compound that inhibited the cell growth by 50%.
# [2] = tested on: H2O2-induced SH-SY5Y cells; assay: Cell viability in H2O2-induced SH-SY5Y cells (MTT assay); format: cell-based, human; details: 5 μM pretreatment 3 h, then 400 μM H2O2 24 h; for protective effect on cell viability: vs nonpretreated group
# Procedure: Cell viability was evaluated using the MTT assay. […] Cells were pretreated for 3 h with aminochalcones or resveratrol at various concentrations ranging from 0 to 100 μM before being incubated with 400 μM H2O2 (Sigma-Aldrich, Cat. no. 31642) for 24 h. Cells treated only with culture media, DMEM with 10% FBS, were used as the control. Each well received 5 mg/mL of MTT solution at the end of the incubation time, and the samples were then incubated at 37 °C in the dark for 2–4 h. Following the removal of the solution, 0.04 N HCl in isopropyl alcohol was added to dissolve the formazan crystals. A microplate reader programed to read at 570 nm was used to detect the MTT formazan product. The absorbance of formazan is directly proportional to the number of viable cells. The viability of the cells was expressed in percentages compared with the viability of the control group.[23]
# [3] = tested on: H2O2-induced SH-SY5Y cells; assay: Cell morphology observation in H2O2-induced SH-SY5Y cells; format: cell-based, human; details: 5 μM pretreatment 3 h, then 400 μM H2O2 24 h
# Procedure: After adhering, the cells were treated with aminochalcones for 3 h. The culture media was refreshed, followed by an additional 24 h of exposure to 400 μM H2O2.
# [4] = tested on: H2O2-induced SH-SY5Y cells; assay: Mitochondrial membrane potential (Rhodamine-123) in H2O2-induced SH-SY5Y cells; format: cell-based, human; details: 5 μM pretreatment, vs H2O2 alone
# Procedure: Mitochondrial-specific fluorescent dye, Rhodamine-123 (Sigma-Aldrich, Cat. no. R8004), was used to determine the MMP. The reduction in the fluorescence signal correlated with the decrease in MMP, which referred to a decrease in the mitochondrial function. SH-SY5Y cells (200 μL) at 1.0 × 10^5 cells/mL were plated onto the 96-well plate and incubated overnight at 37 °C. Then, each well was pretreated for 3 h with 5 μM aminochalcones or resveratrol before being challenged with 400 μM H2O2 for further 24 h. Cells were then exposed to Rhodamine-123 at a final concentration of 10 μM in the culture media and incubated at 37 °C for 30 min under dark conditions. At the end of incubation, cells were washed twice with PBS to remove the excess dye. MMP levels were then measured with a microplate reader at excitation and emission wavelengths of 488 and 525 nm, respectively. The MMP of the cells was expressed as percentages compared with the control group.[80]
# [5] = tested on: H2O2-induced SH-SY5Y cells; assay: LDH assay of cell membrane damage in H2O2-induced SH-SY5Y cells; format: cell-based, human; details: 5 μM pretreatment, vs H2O2 alone
# Procedure: LDH leakage into the culture medium of aminochalcones with or without H2O2-treated cells was assessed by using an LDH assay kit to determine the neuroprotective effect of aminochalcones against H2O2-induced cell damage. To prepare samples for the LDH test, 2 mL of SH-SY5Y cells at 1.0 × 10^5 cells/mL concentration was added and incubated overnight in 6-well plates at 37 °C. Then, each well was pretreated for 3 h with 5 μM aminochalcones or resveratrol before exposure to 400 μM H2O2 for another 24 h. Subsequently, the LDH assay kit (Cat. no. MAK066) from Sigma-Aldrich (St. Louis, MO, USA) was used to measure the LDH activity, following the manufacturer’s instructions. The assay relies on the conversion of lactate to pyruvate by the enzyme lactate dehydrogenase and further produces NADH as a product, giving rise to an increase in absorbance at 450 nm.
# [6] = tested on: H2O2-induced SH-SY5Y cells; assay: Intracellular ROS production (DCFDA) in H2O2-induced SH-SY5Y cells; format: cell-based, human; details: for effect on intracellular ROS production: 5 μM pretreatment, vs H2O2 alone
# Procedure: Green fluorescent DCF was generated by the oxidation of nonfluorescent carboxy-DCFDA, which is caused by intracellular ROS. SH-SY5Y cells (200 μL) at 1.0 × 10^5 cells/mL were seeded and incubated overnight in 96-well plates at 37 °C. Then, each well was pretreated for 3 h with 5 μM aminochalcones or resveratrol before exposure to 400 μM H2O2 for an additional 24 h. Subsequently, carboxy-H2DCFDA was introduced to the to a final concentration of 10 μM in the culture media and incubated at 37 °C for 30 min under dark conditions. Intracellular ROS production was instantly evaluated using a microplate reader at an emission wavelength of 528 nm and an excitation wavelength of 485 nm. The intracellular ROS production of the cells was expressed as percentages compared with the control group.[79]
# SH-SY5Y cells = assay: SH-SY5Y cell viability, compounds alone (MTT assay); format: cell-based, human; details: compounds alone at 10 μM, no H2O2
# Procedure: Cell viability was evaluated using the MTT assay. Briefly, 96-well plates were seeded with SH-SY5Y cells at a density of 1 × 10^5 cells/mL and allowed to attach. Cells were pretreated for 3 h with aminochalcones or resveratrol at various concentrations ranging from 0 to 100 μM before being incubated with 400 μM H2O2 (Sigma-Aldrich, Cat. no. 31642) for 24 h. Cells treated only with culture media, DMEM with 10% FBS, were used as the control. Each well received 5 mg/mL of MTT solution at the end of the incubation time, and the samples were then incubated at 37 °C in the dark for 2–4 h. Following the removal of the solution, 0.04 N HCl in isopropyl alcohol was added to dissolve the formazan crystals. A microplate reader programed to read at 570 nm was used to detect the MTT formazan product. The absorbance of formazan is directly proportional to the number of viable cells. The viability of the cells was expressed in percentages compared with the viability of the control group.[23]
SMILES,IC50 at 48 h [1],protective effect on cell viability [2],effect on cell morphology [3],effect on mitochondrial function [4],effect on cell membrane damage [5],effect on intracellular ROS production [6],"effect on cell viability, compounds alone (SH-SY5Y cells)","viability at 5 µM ([2]; Homo sapiens, SH-SY5Y, read-out: cell viability (percentage relative to control))","activity at 5 µM ([6]; Homo sapiens, SH-SY5Y, 5 μM pretreatment 3 h, then 400 μM H2O2 24 h, H2O2 alone 135.54%, read-out: intracellular ROS production (fluorescence intensity, % of control))",melting point
"COc1cccc2c1C(=O)c1c(O)c3c(c(O)c1C2=O)C[C@@](O)(C(=O)CO)C[C@@H]3O[C@H]1C[C@H](N)[C@H](O)[C@H](C)O1 [doxorubicin, reference compound]",3.03 ± 0.09 µM,,,,,,,,,
"COc1cccc(/C=C/C(=O)c2ccc(N)cc2)c1 [Compound 5, (E)-1-(4-Aminophenyl)-3-(3-methoxyphenyl)prop-2-en-1-one]",116 ± 8.08 µM,significantly improved the cell viability,prevented morphological aberration,prevented mitochondrial dysfunction,reduced cell membrane damage,reduced intracellular ROS production,,,,
"COc1ccc(/C=C/C(=O)c2ccc(N)cc2)c(OC)c1OC [Compound 2, (E)-1-(4-Aminophenyl)-3-(2,3,4-trimethoxyphenyl)prop-2-en-1-one]",99.3 ± 4.15 µM,significantly improved the cell viability,prevented morphological aberration,prevented mitochondrial dysfunction,reduced cell membrane damage,reduced intracellular ROS production,,,,
"COc1cc(/C=C/C(=O)c2ccc(N)cc2)cc(OC)c1OC [Compound 3, (E)-1-(4-Aminophenyl)-3-(3,4,5-trimethoxyphenyl)prop-2-en-1-one]",70.3 ± 3.78 µM,significantly improved the cell viability,prevented morphological aberration,prevented mitochondrial dysfunction,reduced cell membrane damage,reduced intracellular ROS production,hazardous to the treated cells,,,
"Oc1ccc(/C=C/c2cc(O)cc(O)c2)cc1 [resveratrol, reference compound]",,,morphological alterations were reduced,,,,,85%,123 ± 2%,
"COc1ccc(/C=C/C(=O)c2ccc(N)cc2)cc1O [Compound 4, (E)-1-(4-Aminophenyl)-3-(3-hydroxy-4-methoxyphenyl)prop-2-en-1-one]",115.3 ± 1.05 µM,low protective potential,,,,,hazardous to the treated cells,,,187 to 189 °C
